The source of these data is PMC3210913 (Psychopharmacology, 2011).

Each structure is given as a SMILES string.

The assay deals with serotonin 5-HT1A receptor. In words: in vivo PET displacement of [carbonyl-11C]WAY-100635. Also on record: species or system Macaca fascicularis. To be noted: 300 µg/kg i.v. cariprazine, raphe nuclei, ketamine/xylazine anaesthesia.
Sequence of serotonin 5-HT1A receptor (UPI0032B04AFA 1-422): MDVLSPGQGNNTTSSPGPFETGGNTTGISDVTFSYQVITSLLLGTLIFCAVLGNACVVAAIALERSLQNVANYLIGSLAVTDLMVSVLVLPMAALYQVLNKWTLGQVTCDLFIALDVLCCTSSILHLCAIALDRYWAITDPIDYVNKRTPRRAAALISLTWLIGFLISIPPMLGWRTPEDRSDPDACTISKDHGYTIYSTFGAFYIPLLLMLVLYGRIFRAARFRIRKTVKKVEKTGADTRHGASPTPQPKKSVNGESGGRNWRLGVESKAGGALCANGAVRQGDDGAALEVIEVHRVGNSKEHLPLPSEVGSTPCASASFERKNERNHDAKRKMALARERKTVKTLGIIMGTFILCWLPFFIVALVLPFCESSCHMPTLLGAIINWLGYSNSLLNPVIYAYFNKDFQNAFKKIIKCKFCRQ

For `CN(C)C(=O)N[C@H]1CC[C@H](CCN2CCN(c3cccc(Cl)c3Cl)CC2)CC1` [cariprazine], the “Receptor occupancy (%) / Cariprazine (μg/kg) / 300” value is given as 30%.
